Literature values, collected in US20140080923A1, “STEVIA BASED SWEETENING COMPOSITION” (STEVINOL LTD., priority 2011, published 2014).

Details: background statement

SMILES | sweetness compared with sucrose
C=C1C[C@@]23CC[C@H]4[C@@](C)(CCC[C@@]4(C)C(=O)O[C@@H]4O[C@H](CO)[C@@H](O)[C@H](O)[C@H]4O)[C@@H]2CC[C@]1(O[C@@H]1O[C@H](CO)[C@@H](O)[C@H](O)[C@H]1O[C@@H]1O[C@H](CO)[C@@H](O)[C@H](O)[C@H]1O)C3 [stevioside] | ~300 times sweeter than sucrose
C=C1C[C@@]23CC[C@H]4[C@@](C)(CCC[C@@]4(C)C(=O)O[C@@H]4O[C@H](CO)[C@@H](O)[C@H](O)[C@H]4O)[C@@H]2CC[C@]1(O[C@@H]1O[C@H](CO)[C@@H](O)[C@H](O[C@@H]2O[C@H](CO)[C@@H](O)[C@H](O)[C@H]2O)[C@H]1O[C@@H]1O[C@H](CO)[C@@H](O)[C@H](O)[C@H]1O)C3 [rebaudioside A] | ~300 times sweeter than sucrose
